Measurements from the Kinase Knowledgebase extract (Sharma et al. 2016).

molecular target: ROCK2 (human) (UniProt O75116); experiment: Assessment of ROCK2 Kinase Activity
Sequence (O75116 whole entry, looked up): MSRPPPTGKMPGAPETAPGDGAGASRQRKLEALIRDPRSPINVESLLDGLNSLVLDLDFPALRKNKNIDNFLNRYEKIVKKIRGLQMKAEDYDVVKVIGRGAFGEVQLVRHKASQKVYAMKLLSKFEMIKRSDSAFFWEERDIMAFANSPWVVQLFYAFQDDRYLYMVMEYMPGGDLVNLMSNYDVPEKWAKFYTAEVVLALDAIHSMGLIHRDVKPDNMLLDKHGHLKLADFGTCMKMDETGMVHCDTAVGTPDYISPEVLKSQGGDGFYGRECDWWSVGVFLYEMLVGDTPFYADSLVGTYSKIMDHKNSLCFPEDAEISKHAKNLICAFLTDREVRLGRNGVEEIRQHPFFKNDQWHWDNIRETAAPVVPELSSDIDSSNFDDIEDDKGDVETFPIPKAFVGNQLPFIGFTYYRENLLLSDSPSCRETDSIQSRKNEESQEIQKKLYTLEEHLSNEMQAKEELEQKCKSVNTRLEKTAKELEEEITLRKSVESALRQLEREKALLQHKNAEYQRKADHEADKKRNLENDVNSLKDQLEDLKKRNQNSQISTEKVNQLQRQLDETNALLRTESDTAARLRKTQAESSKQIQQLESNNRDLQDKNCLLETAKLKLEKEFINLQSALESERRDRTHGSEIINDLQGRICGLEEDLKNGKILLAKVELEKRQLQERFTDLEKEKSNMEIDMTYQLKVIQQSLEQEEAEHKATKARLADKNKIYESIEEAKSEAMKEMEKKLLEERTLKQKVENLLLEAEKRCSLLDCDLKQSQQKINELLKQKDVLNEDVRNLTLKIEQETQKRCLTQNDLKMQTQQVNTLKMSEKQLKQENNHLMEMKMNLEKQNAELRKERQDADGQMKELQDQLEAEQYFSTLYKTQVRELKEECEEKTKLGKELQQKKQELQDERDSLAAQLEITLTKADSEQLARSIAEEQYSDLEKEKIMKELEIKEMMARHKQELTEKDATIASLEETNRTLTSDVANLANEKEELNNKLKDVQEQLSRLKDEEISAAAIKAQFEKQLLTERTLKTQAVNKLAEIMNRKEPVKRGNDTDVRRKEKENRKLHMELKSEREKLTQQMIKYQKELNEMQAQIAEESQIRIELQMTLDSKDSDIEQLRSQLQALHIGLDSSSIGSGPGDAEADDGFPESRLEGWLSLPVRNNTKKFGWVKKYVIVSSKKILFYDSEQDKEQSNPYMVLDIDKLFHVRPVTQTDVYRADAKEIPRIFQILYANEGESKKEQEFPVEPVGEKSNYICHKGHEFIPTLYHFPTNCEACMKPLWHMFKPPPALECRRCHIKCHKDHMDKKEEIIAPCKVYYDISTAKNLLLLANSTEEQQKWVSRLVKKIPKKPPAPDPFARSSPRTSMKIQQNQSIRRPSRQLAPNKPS

IC50 [µM] | SMILES
≤ 1 | C=CCC1(N)CCC(Oc2cc3cc[nH]c(=O)c3cc2Cl)CC1 (stereo unspecified)
≤ 1 | N[C@]1(C2CC2)CC[C@H](Oc2cc3cc[nH]c(=O)c3cc2Cl)CC1
≤ 1 | NCC1(c2ccccc2)CCC(Oc2cc3ccncc3cc2Cl)CC1 (stereo unspecified)
≤ 1 | NC1(CC(O)CO)CCC(Oc2cc3cc[nH]c(=O)c3cc2Cl)CC1 (stereo unspecified)
≤ 1 | NCC1(c2ccccc2)CCC(Oc2cc3cc[nH]c(=O)c3cc2Cl)CC1 (stereo unspecified)
≤ 1 | NCC1(c2ccc(F)cc2)CCC(Oc2cc3cc[nH]c(=O)c3cc2Cl)CC1 (stereo unspecified)
≤ 1 | NCC1(c2ccc(Cl)c(Cl)c2)CCC(Oc2cc3cc[nH]c(=O)c3cc2Cl)CC1 (stereo unspecified)
≤ 1 | COc1ccc(C2(CN)CCC(Oc3cc4cc[nH]c(=O)c4cc3Cl)CC2)cc1 (stereo unspecified)
≤ 1 | COc1ccc(C2(CN)CCC(Oc3cc4cc[nH]c(=O)c4cc3Cl)CC2)cc1OC (stereo unspecified)
≤ 1 | NCC1(c2ccc(Cl)cc2)CCC(Oc2cc3cc[nH]c(=O)c3cc2Cl)CC1 (stereo unspecified)
≤ 1 | NCC1(c2cccc(Cl)c2)CCC(Oc2cc3cc[nH]c(=O)c3cc2Cl)CC1 (stereo unspecified)
